Test results: patent US10646521B2, “Microbiota composition, as a marker of responsiveness to chemotherapy, and use of microbial modulators (pre-, pro- or synbiotics) for improving the efficacy of a cancer treatment” (INSTITUT GUSTAVE ROUSSY, priority 2013, dated 2020)
Where “and” joins values, the source holds several entries; their conditions need not be identical. Equal values may be shown once.

Key:
splenic CD4+ T cells = details: mouse, in vivo
[1] = tested on: CBir1 TCR Tg CD4+ T cells; details: mouse, in vivo
Procedure: CD4^+ T cells were isolated from B6.CBir1 TCR Tg mice using anti-mouse CD4 magnetic beads. Briefly, splenic cells were washed twice and incubated with anti-CD4 magnetic beads at 4° C. for 30 min and then separated by magnetic field. When checked by flow cytometry, over 95% of the cells were CD4^+ T cells. One million CBir1 Tg T cells (CD45.1^+) were adoptively transferred i.v. into CTX or NaCl treated-naïve congenic (CD45.2^+) mice two days after chemotherapy and spleens were harvested at day 5-7 post-transfer for flow cytometry analyses and ex vivo splenocyte restimulations. Flow cytometry analyses gated on CD45.1^+ cells to appreciate percentages of intracellular IL-17^+ or IFNg^+ cells after PMA/ionomycin 5 h restimulation in the presence of monensin.

[2] = tested on: Lysozyme M and RegIIIγ transcription; details: duodenum, 18 hours post-CTX
Procedure: Lamina propria cells were isolated from duodenum, ileum and colon 18 h post CTX, and total RNA extraction and genomic DNA removal were performed with the RNeasy Mini Kit (Qiagen, Hilden, Germany), following the manufacturer's instructions. Total RNA extraction and genomic DNA removal of ilea or duodena were performed with the RNeasy Mini Kit (Qiagen, Hilden, Germany), following the manufacturer's instructions. Total RNA was then reverse transcribed into cDNA with the SuperScript III Reverse Transcriptase and the RNaseOUT™ Recombinant Ribonuclease Inhibitor (Life Technologies, Saint Aubin, France), in the presence of random primers (Promega, Charbonnieres, France) and the Deoxynucleoside Triphosphate Set, PCR grade (Roche Diagnostics, Meylan, France). Expression of RegIIIγ (Mm00441127_m1) and LysM (Mm01612741_m1)-related genes was analyzed with TaqMan® Gene Expression Assays using the Universal Master Mix II on a StepOnePlus™ Real-Time PCR System (Life Technologies, France). Quantitative RT-PCR data were invariably normalized to the expression levels of the housekeeping gene peptidylprolyl isomerase A (Ppia) by means of the 2^−ΔCt method.

[3] = tested on: small intestine mucosal microbiota; details: mouse, in vivo
[4] = tested on: bacterial groups associated with small intestine mucosa
[5] = 18 h post CTX
Procedure: Gut barrier integrity was assessed by permeability to FITC-dextran (4 kDa, Sigma Aldrich). Fourteen hours after i.p. injection with NaCl or CTX at 100 or 200 mg/kg, mice were fasted for 4 hours and then orally fed with FITC-dextran at 0.6 mg/g body weight (80 mg/ml in NaCl, 18 h after NaCl/CTX treatment). After 3 to 4 h, the mice were euthanized and exsanguinated by cardiac puncture. Plasma FITC levels were subsequently determined using a fluorescence spectrophotometer (λex/λem=485/535 nm).

memory CD4+ T cells = details: 11 patients, after metronomic CTX
Procedure: Ex vivo restimulation assays using patients' autologous monocytes loaded with defined bacteria for 3 hours, neutralized with antibiotics, then cultured in GM-CSF+IL-4 (to differentiate into DC) and incubated for 3 days with CD4^+CD45RO^+ T cells (at a 1:2 ratio) purified from autologous blood at various time points (Day 0: before CTX, Day 12-46: after CTX, NSCLC: non small cell lung cancer). A. Cytokine release (IFNγ, TNF, IL-10) was monitored using ELISA. […] C. […] B-D show the cytokine levels in the 40 h supernatants of 250.000 memory CD4^+ T cells for each individual patient pre- and post-CTX administration.
The responses that were monitored included those against enterococci (E. hirae and E. faecalis, both immunogenic in mice receiving CTX), lactobacilli (L. johnsonii and the less relevant L. plantarum), as well as against E. coli.

splenocytes = experiment: TCR cross-linking of splenocytes, IL-17 and IFNγ ELISA; type: in vivo, mice
splenic pTh17 cells = experiment: Flow cytometry of splenic pTh17 / TH1 / Tc1 cells
Procedure: For cross-linking experiment, 2×10^5 total splenocytes per well (after red cell lysis) were incubated in MaxiSorp plates (Nunc) precoated with anti-CD3ε mAb (145-2C11) (0.5 μg per well; eBioscience) and/or anti-CD28 mAb (37.51) (2 μg/ml; BD). The supernatants were assayed at 48 h by ELISA for mouse IL-17A (eBioscience) and IFNγ (BD). […] For intracellular, cells were incubated for 4 h at 37° C. with 50 ng/ml of PMA, 1 μg/ml of ionomycin and BD Golgi STOP™. After membrane staining, cells were stained with anti-IL-17A, IFNγ, T-bet and RORγt using eBioscience FoxP3/Transcription factor staining buffer set.

gut microbiota [6] = details: NOD1-/-xNOD2-/- naive mice, CTX compared with PBS, seven days
[7] = tested on: lamina propria cells of the small intestine; details: 7 days post-CTX
[8] = tested on: small intestine epithelium; details: mouse, in vivo
Procedure: The whole small intestine (duodenum, jejunum and ileum) was removed, cleaned from fecal content and fixed in 4% of PFA for 1 h. Re-hydration of the tissue was performed in 15% sucrose for 1 h and in 30% sucrose overnight. Depending on the experiment, the small intestine was entirely rolled, or cut into small pieces, then embedded in optimum cutting temperature (OCT) compound (Sakura), snap frozen and longitudinal or transversal […] were prepared.
For histological analyses, the longitudinal sections were counterstained with hematoxilin and eosin. For the histological quantitative analyses, inflammatory foci, altered villi and the thickness of lamina propria were scored for each section, while the number of goblet cells was counted for each villus. […] Then, a rabbit polyclonal antibody against the lysozyme protein (1:500 for 1 h, Thermo Scientific) and ALEXA FLUOR 488 Fragment of goat anti-rabbit IgG (1:300 for 1 h, Molecular Probes) were used. All steps were performed at room temperature. Lysozyme-positive areas were quantified on mosaic images using the Histolab software (Microvision Instruments). The quantification of Paneth cells was performed measuring the average area of the Lysozyme-positive clusters (group of Paneth cells) as well as the emission/μm^2 of those clusters (not shown).

MCA205 sarcomas = type: in vivo, C57BL/6 mice; details: mouse, in vivo
commensal bacteria = type: in vivo, mice
Procedure: Mesenteric lymph nodes and spleens were aseptically removed, smashed in PBS and plated onto COS agar plates (BioMérieux), for aerobic and anaerobic growth. After 48 h of culture, single colonies were isolated and stocked in glycerol at −80° C.
Serial dilutions of feces from naïve mice or tumor bearers treated with NaCl or CTX, vancomycin or broad spectrum antibiotics (ATB) (ampicillin+streptomycin+colistin), were plated onto COS agar plates and after 48 h, single colonies were isolated and Gram staining was performed. The identification of specific bacteria was accomplished through the combination of morphological tests and the analysis through VITEK® automated system (BioMérieux, France) and verified in mass spectrometry (MALDI-TOF, see below) performed at Pasteur Institute, Paris, France.

tumor = experiment: Effects of ATB regimen on the efficacy of CTX (tumor outgrowth); type: in vivo, mice; details: ATB regimen 15 days prior to tumor inoculation
Procedure: Distinct ATB regimen (Zhang Y et al. Toxicology and Applied Pharmacology 277 (2014) 138-145) were administered for 15 days prior to tumor inoculation and CTX therapy every other 13 days. Tumor outgrowth was monitored with a caliper twice a week. […] Each experiment contains several groups of 5 mice. *Anova test: p<0.05.

gut microbiota [9] = details: Zhang Y et al., 2014; cited from earlier work

O=P1(N(CCCl)CCCl)NCCCO1 (centres unmarked) [CTX, cyclophosphamide]
mice with Th1 memory responses against L. johnsonii (splenic CD4+ T cells): 50 % of mice
immune responses against commensal bacteria (CBir1 Tg T cells) [1]: induced TCR-restricted, antigen specific immune responses against commensal bacteria
expression of the antibacterial enzyme lysozyme [2]: upregulated
bacterial species/groups from the Firmicutes phylum in mucosa [3]: reduction
dysbiosis at early time points [3]: failed to cause a major dysbiosis
microbial composition of small intestine and caecum [3]: significantly altered the microbial composition of the small intestine (but not of the caecum)
proportion of Spirochaetes phylum [3]: reduction
relative abundance of the Treponema genus [3]: 0%
relative abundance: Butyrate-producing bacterium M62/1 (AY305309) [3]: 0.07% and 0.06%
relative abundance: Butyrate-producing bacterium SM4/1 (AY305314) [3]: 0.21% and 0.20%
relative abundance: Clostridium sp ASF502 (AF157053) [3]: 0.01% and 0.00%
relative abundance: Clostridium sp. A9 (DQ789119) [3]: 0.23% and 0.27%
relative abundance: Clostridium sp. Clone-33 (AB622843) [3]: 0.02% and 0.00%
relative abundance: Clostridium sp. Clone-40 (AB622844) [3]: 0.05% and 0.02%
relative abundance: Clostridium sp. Clone-49 (AB622849) [3]: 0.07% and 0.09%
relative abundance: Clostridium sp. Culture-41 (AB622820) [3]: 0.10% and 0.08%
relative abundance: Clostridium sp. Culture-54 (AB622823) [3]: 0.03% and 0.04%
relative abundance: Coprococcus catus; L8 (AB361624) [3]: 0.03%
relative abundance: Lachnospiraceae bacterium 14-2 (DQ789124) [3]: 0.05% and 0.02%
relative abundance: Lactobacillus reuteri; LU3 (AY735406) [3]: 0.24% and 0.14%
relative abundance: Roseburia faecis (T); M7211 (AY305310) [3]: 0.35% and 0.41%
relative abundance: Roseburia intestinalis; XB6B4 (AM055815) [3]: 0.02% and 0.00%
relative abundance: Rumen bacterium NK4A66 (GU124467) [3]: 0.07% and 0.10%
relative abundance: Tannerella forsythia; OB071 (JN713185) [3]: 0.02%
relative amounts of SFB and TM7 or Clostridium group XIV ([4]; day 7 post-CTX (not shown)): No CTX-specific modulations
abundance of lactobacilli and enterococci ([4]; small intestine mucosa, 7 days post-CTX): reduction
bacterial counts of the Clostridium leptum ([4]; tumor bearers, 7 days post-CTX): not affected
total bacterial load of the small intestine ([4]; tumor bearers, 7 days post-CTX): not affected
intestinal permeability (orally administered FITC-dextran detectable in blood) [5]: increase
patients developing memory Th1 responses against E. coli (memory CD4+ T cells): 18%
patients developing memory Th1 responses against L. johnsonii (memory CD4+ T cells): 18%
patients developing memory Th1 responses against enterococci (memory CD4+ T cells): 54%
patients mounting a cellular immune response against L. plantarum (memory CD4+ T cells): 9%
polarization of splenic CD4+ T cells towards Th1 and Th17 pattern (splenocytes; day 7 after treatment): induced the polarization
increase of ex vivo IL-17 release by TCR-stimulated splenocytes (splenocytes; germ-free (GF) mice): failed to do so
ex vivo IL-17 release by TCR-stimulated splenocytes (splenocytes; specific pathogen-free (SPF) mice): increased
frequency of pathogenic Th17 (pTh17) cells within the spleen (splenic pTh17 cells; 7 days after treatment): increased
priming of splenic pTH17 cells in NOD2-/- mice (splenic pTh17 cells; following CTX administration): augmented
Clostridiaceae in the small intestines (gut microbiota [6]): overrepresentation
Erysipelotrichaceae in SI (gut microbiota [6]): relative loss
Lachnospiraceae in feces (gut microbiota [6]): relative loss
Porphyromonadaceae (mainly Barnesiella) in the stool (gut microbiota [6]): overrepresentation
frequencies of CD103+CD11b+ dendritic cells in lamina propria of the small intestine [7]: significantly decreased
frequencies of TCRαβ+CD3+ T cells expressing RORγt in lamina propria of the small intestine [7]: significantly decreased
inflammatory status of the gut epithelial barrier (histology) [8]: shortening of small intestinal villi, discontinuities of the epithelial barrier, interstitial edema and focal accumulation of mononuclear cells in the lamina propria
antitumor effects against MCA205 sarcomas, GF versus SPF mice (MCA205 sarcomas): reduced in GF compared with SPF mice
immune-dependent anti-sarcoma effects in NOD1-/-xNOD2-/- mice (MCA205 sarcomas): significantly enhanced
immune-dependent anti-sarcoma effects in single knock out mice (NOD1 or NOD2 or RIP2 or CARD15) compared with WT (MCA205 sarcomas): not ameliorated
Lactobacillus johnsonii cultured from lymphoid organs (commensal bacteria; 48 h post therapy): > 40 % cases
mice with translocation of commensal bacteria into mesenteric lymph nodes and spleens (commensal bacteria; 48 h post-CTX): > 50 % mice
bacterial translocation (colonies from spleens, anaerobic conditions) in NOD1xNOD2-/- (commensal bacteria; 48 hrs post-CTX): enhanced

O=C(O)c1cn(C2CC2)c2cc(N3CCNCC3)c(F)cc2c1=O [cifloxacin]
effect on the CTX-induced antitumor effects (tumor): not efficient
Bacteroidetes in gut microbiota (gut microbiota [9]): marked suppression
